Read-outs that look alike come from different tables or passages of the source.
Legend:
[1] = target: T1, MCP-1 receptor B (CCR2B) (Homo sapiens, UniProt P41597); test: hMCP-1 receptor binding assay (125I-MCP-1, CHO-CCR2B cell membranes)
T1 construct: expressed in transfected cells; host or cells: CHO-K1 (clone 7, CHO-CCR2B), membrane fragments
T1 sequence (P41597 1-360 isoform P41597-2): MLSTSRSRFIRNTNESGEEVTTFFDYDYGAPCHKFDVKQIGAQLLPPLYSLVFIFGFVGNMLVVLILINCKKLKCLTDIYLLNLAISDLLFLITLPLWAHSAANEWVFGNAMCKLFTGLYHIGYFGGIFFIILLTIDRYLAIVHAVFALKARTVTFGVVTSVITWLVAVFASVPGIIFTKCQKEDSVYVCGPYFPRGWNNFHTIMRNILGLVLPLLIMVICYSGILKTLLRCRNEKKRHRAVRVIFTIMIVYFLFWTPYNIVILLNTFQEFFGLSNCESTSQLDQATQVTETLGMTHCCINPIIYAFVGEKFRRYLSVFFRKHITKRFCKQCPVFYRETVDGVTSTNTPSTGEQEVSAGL
Description: The MCP-1 receptor B (CCR2B) cDNA was cloned by PCR from THP-1 cell RNA using suitable oligonucleotide primers based on the published MCP-1 receptor sequences (Charo et al., 1994, Proc. Natl. Acad. Sci. USA, 91, 2752). The resulting PCR products were cloned into vector PCR-II™ (In Vitrogen, San Diego, Calif.). Error free CCR2B cDNA was subcloned as a Hind III-Not I fragment into the eukaryotic expression vector pCDNA3 (In Vitrogen) to generate pCDNA3/CC-CKR2A and pCDNA3/CCR2B respectively.
Linearised pCDNA3/CCR2B DNA was transfected into CHO-K1 cells by calcium phosphate precipitation (Wigler el al., 1979, Cell, 16, 777). Transfected cells were selected by the addition of Geneticin Sulphate (G418, Gibco BRL) at 1 mg/ml, 24 hours after the cells had been transfected. Preparation of RNA and Northern blotting were carried out as described previously (Needham et al., 1995, Prot. Express. Purific., 6, 134). CHO-K1 clone 7 (CHO-CCR2B) was identified as the highest MCP-1 receptor B expresser. […]
^125I MCP-1 was prepared using Bolton and Hunter conjugation (Bolton et al. 1973, Biochem. J., 133, 529; Amersham International plc]. Equilibrium binding assays were carried out using, the method of Ernst et al., 1994, J. Immunol., 152, 3541. Briefly, varying amounts of ^125I-labeled MCP-1 were added to 7 μg of purified CHO-CCR2B cell membranes in 100 μl of Binding Buffer. After 1 hour incubation at room temperature the binding reaction mixtures were filtered and washed 5 times through a plate washer (Brandel MLR-96T Cell Harvester) using ice cold Binding Buffer. Filter mats (Brandel GF/B) were pre-soaked for 60 minutes in 0.3% polyethylenimine prior to use. Following filtration individual filters were separated into 3.5 ml tubes (Sarstedt No. 55.484) and bound ^125I-labeled MCP-1 was determined (LKB 1277 Gammamaster). […] Non-specific binding was determined by the inclusion of a 200-fold molar excess of unlabelled MCP-1 in the reaction. […]

[2] = system: THP-1 cells; test: MCP-1 mediated calcium flux in THP-1 cells; format: cell-based, human; settings: stimulation of THP-1 cells with hMCP-1, FURA-2; read-out: EC50 of rise in [Ca2+]i
Protocol: The human monocytic cell line THP-1 was grown in a synthetic cell culture medium RPMI 1640 supplemented with 10% foetal calf serum, 6 mM glutamine and Penicillin-Streptomycin (at 50 μg streptomycin/ml, Gibco BRL). THP-1 cells were washed in HBSS (lacking Ca^2+ and Mg^2+)+1 mg/ml BSA and resuspended in the same buffer at a density of 3×10^6 cells/ml. The cells were then loaded with […] FURA-2/AM for 30 min at 37° C., washed twice in HBSS, and resuspended at 1×10^6 cells/ml. THP-1 cell suspension (0.9 ml) was added to a 5 ml disposable cuvette containing a magnetic stirrer bar and 2.1 ml of prewarmed (37° C.) HBSS containing 1 mg/ml BSA. 1 mM MgCl2 and 2 mM CaCl2. The cuvette was placed in a fluorescence spectrophotometer (Perkin Elmer, Norwalk, Conn.) and preincubated for 4 min at 37° C. with stirring. Fluorescence was recorded over 70 sec and cells were stimulated by addition of hMCP-1 to the cuvette after 10 sec. [Ca^2+]i was measured by excitation at 340 nm and 380 nm alternately and subsequent measurement of the intensity of the fluorescence emission at 510 nm.
where the Kd for FURA-2 Ca^2+ complex at 37° C. was taken to be 224 nm. […]

[3] = system: THP-1 cells; test: hMCP-1 mediated chemotaxis; format: cell-based, human
Protocol: (§1) In vitro chemotaxis assays were performed using the human monocytic cell line THP-1. Cell migration through polycarbonate membranes was measured by enumerating those passing through either directly by Coulter counting or indirectly by use of a colourimetric viability assay measuring the cleavage of a tetrazolium salt by the mitochondrial respiratory chain (Scudiero D. A. et al. 1988, Cancer Res., 48, 4827-4833).
(§2) Chemoattractants were introduced into a 96-well microtitre plate which forms the lower well of a chemotaxis chamber fitted with a PVP-free 5 μm poresize polycarbonate adhesive framed filter membrane (NeuroProbe MB series, Cabin John, Md. 20818, USA) according to the manufacturer's instructions. […] The plate was incubated at 37° C. for 3 h and the absorbance of the soluble formazan product was read on a microtitre plate reader at 450 nm. The data was input into a spreadsheet, corrected for any random migration in the absence of chemoattractant and the average absorbance values, standard error of the mean, and significance tests were calculated. hMCP-1 induced concentration dependent cell migration with a characteristic biphasic response, maximal […]. […]

[4] = system: THP-1 cells; test: RANTES mediated chemotaxis; format: cell-based; settings: Homo sapiens, RANTES 2 nM, Calcein AM tagged cells
Protocol: as §1, §2

O=C(O)COc1cccc2c1cc(C(=O)O)n2Cc1ccc(F)c(F)c1 [Compound 5, N-(3,4-Difluorobenzyl)-4-(carboxymethoxy)indole-2-carboxylic Acid]
IC50 ([1]; competition with 100 pM labelled MCP-1, CHO-CCR2B membranes, 0.01-50 μM, duplicate eight point curves, read-out: IC50 in the hMCP-1 receptor binding assay): 2300 nM

MCP-1: Human Monocyte Chemoattractant Protein-1, chemokine ligand of the CCR2 receptor
IC50 ([1]; cold competition, 100 pM 125I-labeled MCP-1, CHO-CCR2B membrane fragments, read-out: IC50 of MCP-1 binding to CCR2B receptor): 0.11 nM
Kd ([1]; equilibrium binding, CHO-CCR2B membrane fragments): 0.12 nM
EC50 [2]: ~2 nM
concentration of maximal cell migration (biphasic response) ([3]; hMCP-1 as chemoattractant): 0.5-1.0 nm

O=C(O)c1cc2c(OCCCO)cccc2n1Cc1ccc(Cl)c(Cl)c1 [Compound 15, N-(3,4-Dichlorobenzyl)-4-(3-hydroxypropoxy)indole-2-carboxylic Acid]
IC50 [4]: 3640 nM

COc1ccc2c(cc(C(=O)O)n2Cc2ccc(Cl)c(Cl)c2)c1OCC(=O)O [Compound 9, N-(3,4-Dichlorobenzyl)-5-methoxy-4-(carboxymethoxy)indole-2-carboxylic Acid]
IC50 ([3]; Homo sapiens, 1 nM MCP-1): 12800 nM

From US6569888B1, “Anti-inflammatory indole derivatives” (AstraZeneca AB, priority 1999, dated 2003)
